Test results reported in ChEMBL document CHEMBL3600365, “Structural and computational study on inhibitory compounds for endonuclease activity of influenza virus polymerase” (Bioorg Med Chem, 2015).
Calls of active or inactive are those of the source. The calls are words filed in the database; no cut-off is given here.

Tests used:
Influenza A virus [1] = assay: Antiviral activity against Influenza A virus (A/Puerto Rico/8/1934(H1N1)) infected in MDCK cells after 24 hrs by immunofocus assay; format: functional, organism-based
[2] = molecular target: Polymerase acidic protein (Influenza A virus (A/Puerto Rico/8/1934(H1N1)), UniProt P03433); assay: Inhibition of Influenza A/Puerto Rico/8/34 (H1N1) PA N-terminal domain endonuclease activity expressed in Escherichia coli BL21 (RIL) cells using (6-FAM)TGGCAATATCAGCTCCACA(MGBNFQ) as substrate by fluorescence assay
[3] = Cytotoxicity against MDCK cells after 24 hrs by CellTiter 96 AQueous one solution cell proliferation assay; format: cell-based, Canis lupus familiaris; details: dog
[4] = molecular target: Polymerase acidic protein (Influenza A virus (A/Puerto Rico/8/1934(H1N1))) (UniProt P03433); assay: Inhibition of Influenza A/Perto Rico/8/34 (PR8) (H1N1) PAN (1 to 197) endonuclease activity expressed in Escherichia coli Rosetta (DE3) using M13mp18 as substrate at 100 uM after 60 mins by agarose gel elctrophoresis
[5] = molecular target: Polymerase acidic protein (Influenza A virus (A/Puerto Rico/8/1934(H1N1)), UniProt P03433); assay: Inhibition of Influenza A/Perto Rico/8/34 (PR8) (H1N1) PA N-terminal domain (1 to 197) endonuclease activity expressed in Escherichia coli Rosetta (DE3) using (6-FAM)-AAT CGC AGG CAG CAC TC-(BHQ-1) as substrate measured every 50 secs for 30 mins by FRET assay
[6] = tested on: unidentified influenza virus; assay: Antiviral activity against Influenza virus infected in MDCK cells assessed as viral RNA content incubated with cells for 30 mins prior to addition of 30 mins preincubated virus-compound mixture for 1 hr followed by 3 times compound washout and again cultured in compound containing virus growth medium for 24 hrs by RT-PCR analysis; format: functional, organism-based
Influenza A virus [7] = assay: Antiviral activity against Influenza A virus (A/PR8/34(H1N1)) infected in MDCK cells assessed as inhibition of viral replication after 24 hrs; format: functional, organism-based; details: A/Puerto Rico/8/1934(H1N1)

Question: What does the source list for `O=c1[nH]c(-c2ccc(F)cc2)c(-c2ccc(-c3nnn[nH]3)cc2)cc1O`?
Answer: EC50 (Influenza A virus [1]): 11 µM; IC50 [2]: 0.011 µM

Question: With `Oc1ccc(/C=N/Nc2ccc(Cl)cc2)c(O)c1O` as the compound, how does the CC50 at 24 h [3] read?
Answer: > 200 µM

Question: What about the inhibition [4] of the same compound?
Answer: Active

Question: And the IC50 [5]?
Answer: 8.3 µM

Question: What about the EC50 [6] of the same compound?
Answer: 14.4 µM

Question: Which IC50 (Influenza A virus [7]) does the source give for `O=C(O)/C(O)=C/C(=O)C1(Cc2ccc(Cl)cc2)CCN(Cc2ccccc2)CC1` here?
Answer: 0.35 µM

Question: With `O=C(COc1ccc(F)cc1)c1ccc(O)c(O)c1O` as the compound, how does the CC50 at 24 h [3] read?
Answer: > 200 µM

Question: What about the inhibition [4] of the same compound?
Answer: Active

Question: What about the IC50 [5] of the same compound?
Answer: 9.7 µM

Question: And the EC50 [6]?
Answer: 11.8 µM

Question: For `O=Cc1cc(Cc2ccccc2Cl)cc([N+](=O)[O-])c1O`, which CC50 at 24 h [3] is on record?
Answer: 74.1 µM

Question: What about the inhibition [4] of the same compound?
Answer: Active

Question: What about the IC50 [5] of the same compound?
Answer: 63 µM

Question: What about the EC50 [6] of the same compound?
Answer: 11.5 µM
